We go through 1 molecule from PMC7482797 (2020).

Experiment [1] concerns KRAS GQ (DNA, G4) GGGAGGGAGGGAAGGAGGGAGGGAGGGA
As to the kind of experiment: fluorescence titration, 640 nm. Conditions: 100 mM KCl or NaCl (so in the source); 20 mM PBS, pH 7.4; 1 µM TGP18; one-site fit.

The subject of experiment [2] is BCL-2 GQ (DNA, G4) CGGGCGCGGGAGGAATTGGGCGGGAGC
As to the kind of experiment: fluorescence titration, 640 nm. Conditions: 100 mM KCl or NaCl (so in the source); 20 mM PBS, pH 7.4; 1 µM TGP18; one-site fit.

In experiment [3] the test system is VEGF GQ (DNA, G4) GGGGGCGGGCCGGGGGCGGGGTCCCGGCGGGGCGGAG
Description: fluorescence titration, 640 nm. Conditions: 100 mM KCl or NaCl (so in the source); 20 mM PBS, pH 7.4; 1 µM TGP18; one-site fit.

In experiment [4] the test system is TEL22 GQ (DNA, G4) AGGGTTAGGGTTAGGGTTAGGG
Description: fluorescence lifetime (TCSPC). As to conditions: qualitative; lifetime 1.6 ns against 0.26 ns free; three-fold excess DNA over titration end point.

The test system of experiment [5] is BCL-2 GQ (DNA, G4) CGGGCGCGGGAGGAATTGGGCGGGAGC
As to the kind of experiment: CD melting. Conditions: 100 mM KCl; 20 mM PBS, pH 7.4; 2 µM GQ, TGP18 at 1:1 (2 µM).

In experiment [6] the test system is c-KIT2 GQ (DNA, G4) CGGGCGGGCGCGAGGGAGGGG
As to the kind of experiment: fluorescence titration, 640 nm. Conditions: 100 mM KCl or NaCl (so in the source); 20 mM PBS, pH 7.4; 1 µM TGP18; one-site fit.

Experiment [7] has as its system C-MYC GQ (DNA, G4) TGGGGAGGGTGGGGAGGGTGGGGAAGG
Description: fluorescence titration, 640 nm. Conditions: 100 mM KCl or NaCl (so in the source); 20 mM PBS, pH 7.4; 1 µM TGP18; one-site fit.

The structures appear in SMILES notation.

For `CCN(CC)c1ccc2cc(C=Cc3ccc4ccc5ccc(C)nc5c4[n+]3C)c(=O)oc2c1`, the KD in experiment [1] was 1.3 ± 0.13 µM; in experiment [2], 0.728 ± 0.034 µM; in experiment [3], 2.12 ± 0.35 µM; in experiment [6], 5.5 ± 0.23 µM; in experiment [7], 1.5 ± 0.19 µM. In addition, the binding entry in experiment [4] was “yes”. For the same molecule, the ΔTm in experiment [5] turned out to be 8 °C.
